In patent US20260130395A1, “Water Dispersible Botanical Compositions” (Aquila Black Limited, priority 2021, published 2026):

Assay: Stability of cannabinoid compounds and Vitamin E components in Beverage 1 (AB White) by LCMSMS
Assay type: physicochemical
Conditions: for Stability of Plant-Derived Cannabinoid Compounds in AB White, 8° C.: AB White stored at 8° C.; for Stability of Plant-Derived Cannabinoid Compounds in AB White, 21-25° C.: AB White stored at 21-25° C.

Structure (SMILES): CCCCCc1cc(O)c(C/C=C(\C)CCC=C(C)C)c(O)c1 [CBG, cannabigerol]
- Stability of Plant-Derived Cannabinoid Compounds in AB White, 8° C. (29 days): 4.91 µg/mL
- Stability of Plant-Derived Cannabinoid Compounds in AB White, 8° C. (30 days): 4.79 µg/mL
- Stability of Plant-Derived Cannabinoid Compounds in AB White, 8° C. (60 days): 4.68 µg/mL
- Stability of Plant-Derived Cannabinoid Compounds in AB White, 8° C. (90 days): 4.66 µg/mL
- Stability of Plant-Derived Cannabinoid Compounds in AB White, 8° C. (120 days): 4.89 µg/mL
- Stability of Plant-Derived Cannabinoid Compounds in AB White, 8° C. (150 days): 4.83 µg/mL
- Stability of Plant-Derived Cannabinoid Compounds in AB White, 8° C. (180 days): 4.71 µg/mL
- Stability of Plant-Derived Cannabinoid Compounds in AB White, 8° C. (210 days): 4.73 µg/mL
- Stability of Plant-Derived Cannabinoid Compounds in AB White, 8° C. (240 days): 4.69 µg/mL
- Stability of Plant-Derived Cannabinoid Compounds in AB White, 8° C. (270 days): 4.72 µg/mL
- Stability of Plant-Derived Cannabinoid Compounds in AB White, 8° C. (300 days): 4.74 µg/mL
- Stability of Plant-Derived Cannabinoid Compounds in AB White, 8° C. (330 days): 4.69 µg/mL
- Stability of Plant-Derived Cannabinoid Compounds in AB White, 8° C. (360 days): 4.66 µg/mL
- Stability of Plant-Derived Cannabinoid Compounds in AB White, 8° C. (390 days): 4.68 µg/mL
- Stability of Plant-Derived Cannabinoid Compounds in AB White, 8° C. (420 days): 4.66 µg/mL
- Stability of Plant-Derived Cannabinoid Compounds in AB White, 8° C. (450 days): 4.68 µg/mL
- Stability of Plant-Derived Cannabinoid Compounds in AB White, 8° C. (480 days): 4.64 µg/mL
- Stability of Plant-Derived Cannabinoid Compounds in AB White, 8° C. (510 days): 4.49 µg/mL
- Stability of Plant-Derived Cannabinoid Compounds in AB White, 8° C. (540 days): 4.53 µg/mL
- Stability of Plant-Derived Cannabinoid Compounds in AB White, 8° C. (570 days): 4.46 µg/mL
- Stability of Plant-Derived Cannabinoid Compounds in AB White, 21-25° C. (0 days): 4.87 µg/mL
- Stability of Plant-Derived Cannabinoid Compounds in AB White, 21-25° C. (1 days): 4.73 µg/mL
- Stability of Plant-Derived Cannabinoid Compounds in AB White, 21-25° C. (2 days): 4.72 µg/mL
- Stability of Plant-Derived Cannabinoid Compounds in AB White, 21-25° C. (3 days): 4.75 µg/mL
- Stability of Plant-Derived Cannabinoid Compounds in AB White, 21-25° C. (5 days): 4.89 µg/mL
- Stability of Plant-Derived Cannabinoid Compounds in AB White, 21-25° C. (8 days): 4.90 µg/mL
- Stability of Plant-Derived Cannabinoid Compounds in AB White, 21-25° C. (9 days): 4.79 µg/mL
- Stability of Plant-Derived Cannabinoid Compounds in AB White, 21-25° C. (10 days): 4.68 µg/mL
- Stability of Plant-Derived Cannabinoid Compounds in AB White, 21-25° C. (11 days): 4.74 µg/mL
- Stability of Plant-Derived Cannabinoid Compounds in AB White, 21-25° C. (12 days): 4.88 µg/mL
- Stability of Plant-Derived Cannabinoid Compounds in AB White, 21-25° C. (15 days): 4.87 µg/mL
- Stability of Plant-Derived Cannabinoid Compounds in AB White, 21-25° C. (16 days): 4.80 µg/mL
- Stability of Plant-Derived Cannabinoid Compounds in AB White, 21-25° C. (17 days): 4.80 µg/mL
- Stability of Plant-Derived Cannabinoid Compounds in AB White, 21-25° C. (18 days): 4.72 µg/mL
- Stability of Plant-Derived Cannabinoid Compounds in AB White, 21-25° C. (19 days): 4.68 µg/mL
- Stability of Plant-Derived Cannabinoid Compounds in AB White, 21-25° C. (22 days): 4.68 µg/mL
- Stability of Plant-Derived Cannabinoid Compounds in AB White, 21-25° C. (23 days): 4.85 µg/mL
- Stability of Plant-Derived Cannabinoid Compounds in AB White, 21-25° C. (24 days): 4.80 µg/mL
- Stability of Plant-Derived Cannabinoid Compounds in AB White, 21-25° C. (25 days): 4.86 µg/mL
- Stability of Plant-Derived Cannabinoid Compounds in AB White, 21-25° C. (26 days): 4.78 µg/mL
- Stability of Plant-Derived Cannabinoid Compounds in AB White, 21-25° C. (29 days): 4.76 µg/mL
- Stability of Plant-Derived Cannabinoid Compounds in AB White, 21-25° C. (30 days): 4.73 µg/mL
- Stability of Plant-Derived Cannabinoid Compounds in AB White, 21-25° C. (60 days): 4.83 µg/mL
- Stability of Plant-Derived Cannabinoid Compounds in AB White, 21-25° C. (90 days): 4.65 µg/mL
- Stability of Plant-Derived Cannabinoid Compounds in AB White, 21-25° C. (120 days): 4.59 µg/mL
- Stability of Plant-Derived Cannabinoid Compounds in AB White, 21-25° C. (150 days): 4.63 µg/mL
- Stability of Plant-Derived Cannabinoid Compounds in AB White, 21-25° C. (180 days): 4.79 µg/mL
- Stability of Plant-Derived Cannabinoid Compounds in AB White, 21-25° C. (210 days): 4.75 µg/mL
- Stability of Plant-Derived Cannabinoid Compounds in AB White, 21-25° C. (240 days): 4.79 µg/mL
- Stability of Plant-Derived Cannabinoid Compounds in AB White, 21-25° C. (270 days): 4.62 µg/mL
- Stability of Plant-Derived Cannabinoid Compounds in AB White, 21-25° C. (300 days): 4.67 µg/mL
- Stability of Plant-Derived Cannabinoid Compounds in AB White, 21-25° C. (330 days): 4.71 µg/mL
- Stability of Plant-Derived Cannabinoid Compounds in AB White, 21-25° C. (360 days): 4.69 µg/mL
- Stability of Plant-Derived Cannabinoid Compounds in AB White, 21-25° C. (390 days): 4.70 µg/mL
- Stability of Plant-Derived Cannabinoid Compounds in AB White, 21-25° C. (420 days): 4.72 µg/mL
- Stability of Plant-Derived Cannabinoid Compounds in AB White, 21-25° C. (450 days): 4.73 µg/mL
- Stability of Plant-Derived Cannabinoid Compounds in AB White, 21-25° C. (480 days): 4.46 µg/mL
- Stability of Plant-Derived Cannabinoid Compounds in AB White, 21-25° C. (510 days): 4.51 µg/mL
- Stability of Plant-Derived Cannabinoid Compounds in AB White, 21-25° C. (540 days): 4.48 µg/mL
- Stability of Plant-Derived Cannabinoid Compounds in AB White, 21-25° C. (570 days): 4.47 µg/mL
